The target in the test is T1, human P2X3 (Homo sapiens, UniProt P56373).
T1 construct: expressed in transfected cells
T1 sequence (P56373 1-397): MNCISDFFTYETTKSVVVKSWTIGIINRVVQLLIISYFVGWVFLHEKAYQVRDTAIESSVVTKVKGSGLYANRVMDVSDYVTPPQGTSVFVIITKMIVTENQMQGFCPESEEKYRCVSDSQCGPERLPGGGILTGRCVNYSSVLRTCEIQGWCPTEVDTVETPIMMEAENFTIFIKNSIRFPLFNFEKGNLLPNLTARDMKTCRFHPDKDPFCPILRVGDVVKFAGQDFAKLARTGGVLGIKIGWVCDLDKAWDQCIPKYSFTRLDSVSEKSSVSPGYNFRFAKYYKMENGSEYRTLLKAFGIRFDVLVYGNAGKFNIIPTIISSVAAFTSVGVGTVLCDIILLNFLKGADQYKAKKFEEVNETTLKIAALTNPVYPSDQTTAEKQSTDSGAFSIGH
The test can be described thus: Intracellular Calcium Measurement to Assess Antagonist Affinity (FLIPR, Fluo-4, agonist α,β-meATP). The test is classed as cell-based. The settings on record: Intracellular Calcium Measurement to Assess Antagonist Affinity assay; [α,β-meATP]final=EC50. From the text: Generation of a Human P2X3 and P2X2/3 Stable Cell Line—Human P2X3 receptor cDNA (Accession number NM_002559) was subcloned as a 5′XhoI and 3′HindIII fragment into the expression vector pcDNA5/FRT (Invitrogen). Human P2X2 receptor cDNA (Accession number NM_174873) was subcloned as a 5′EcoRI and 3′NotI fragment into the expression vector pIRESneo2 (BD Biosciences Clontech). The human P2X3 expression construct was transfected using Lipofectamine 2000 (Invitrogen) into Flp-in—293 cells (Invitrogen) according to the manufacturer's directions. Cells positive for flp-mediated recombination of […] P2X3 were selected using 150 μg/ml hygromycin. The stable human P2X3 cell line was co-transfected with the human P2X2 expression construct using Lipofectamine 2000 as above and co-transfected cells selected using […] hygromycin and 1 mg/ml G418. The stable P2X3 cell line was propagated in DMEM, 10% FBS, 100 μg/ml hygromycin, and 100 units/ml penicillin and 100 μg/ml streptomycin, and maintained at 37° and 95% humidity. The stable P2X2/3 cell line was propagated as above with the addition of 500 μg/ml G418.
Intracellular Calcium Measurement to Assess Antagonist Affinity—A fluorescent imaging plate reader (FLIPR; Molecular Devices) was used to monitor intracellular calcium levels using the calcium-chelating dye Fluo-4 (Molecular Probes). The excitation and emission wavelengths used to monitor fluorescence were 488 nm and 530 nm, respectively. Cells expressing either human P2X3 or human P2X2/3 were plated at a density of 20,000 cells/well (20 μl/well) in 384-well black-walled plates approximately 20 hours before beginning the assay. On the day of the assay 20 μl of loading buffer (Hank's balanced salt solution, 2.5 mM CaCl2, 20 mM HEPES, 0.1% BSA, 2.5 mM probenecid, TR-40, Fluo-4, and 138 mM NMDG substituted for NaCl) is added and cells dye-loaded for […] in the dark at room temperature. Ten minutes prior to adding agonist, the antagonist was added in a volume of 10 μl and allowed to incubate at room temperature. During this period fluorescence data is collected at 3 sec intervals followed by 10 sec intervals. The agonist, α,β-meATP, is added at a 6× concentration ([α,β-meATP]final=EC50). Following agonist addition fluorescence was measured at 5 sec intervals and analyzed based on the increase in peak relative fluorescence units (RFU) compared to the basal fluorescence. Peak fluorescence was used to determine the inhibitory effect at each concentration of antagonist by the following equation: % Inhibition=100*(1−((RFU(drug)−RFU(control))/(RFU(DMSO only)−RFU(control))))
A general note: Calcium flux is commonly read through the fluorescence of an indicator in the cells.

Structures are written as SMILES. pIC50: −log10 of the molar value.

As a reminder, the pIC50 is the IC50 on a negative log10 scale, so that one unit is a factor of ten.

For `Cc1ccc(-c2cc(C(=O)N[C@H](C)c3ccc(F)cn3)cc(C3=NO[C@H](c4ccccn4)C3)c2)nc1` [N-[(1R)-1-(5-fluoropyridin-2-yl)ethyl]-3-(5-methylpyridin-2-yl)-5-[(5S)-5-pyridin-2-yl-4,5-dihydroisoxazol-3-yl]benzamide], the negative logarithm of the IC50 (pIC50) was 7.70.
As to `Cc1ccc(-c2cc(C(=O)N[C@H](C)c3ccc(C(F)(F)F)nc3)cc(C3=NO[C@H](c4ccccn4)C3)c2)nc1` [3-(5-methylpyridin-2-yl)-5-[(5S)-5-pyridin-2-yl-4,5-dihydroisoxazol-3-yl]-N-{(1R)-1-[6-(trifluoromethyl)pyridin-3-yl]ethyl}benzamide], the pIC50 is 8.00.
In the case of `Cc1ccc(-c2cc(C(=O)N[C@H](C)c3ncc(F)cc3F)cc(C3=NOC4(CCC4)C3)c2)nc1` [N-[(1R)-1-(3,5-difluoropyridin-2-yl)ethyl]-3-(5-methylpyridin-2-yl)-5-(5-oxa-6-azaspiro[3.4]oct-6-en-7-yl)benzamide], the negative logarithm of the IC50 (pIC50) is 7.24.
As for `C[C@@H](NC(=O)c1cc(C2=NO[C@H](c3ccccn3)C2)cc(-c2ccc(Cl)cn2)c1)c1ccc(F)cn1` [3-(5-chloropyridin-2-yl)-N-[(1R)-1-(5-fluoropyridin-2-yl)ethyl]-5-[(5S)-5-pyridin-2-yl-4,5-dihydroisoxazol-3-yl]benzamide], the negative-log IC50 (pIC50) was 6.96.

(Values after patent US8461185B2, “P2X3 receptor antagonists for treatment of pain” (Merck Sharp & Dohme Corp., priority 2007, dated 2013).)
